The test system of this assay is anti-DNP IgE-induced passive cutaneous anaphylaxis in BALB/c mice. In words: Passive cutaneous anaphylaxis (PCA) model in mice induced with anti-DNP IgE. In kind it is in vivo. From the text: Passive cutaneous anaphylaxis test, also known as PCA reaction, is a local allergic reaction caused by antibodies that bind to the same or different animal tissues. The PCA animal model in the present disclosure was a passive sensitization model in which IgE binds to specific receptors on skin mast cells. When allergens were stimulated, local mast cells released allergic mediators, thereby increasing local vascular permeability. […] The specific steps were as follows:
The PCA model in mice was induced using anti-DNP IgE. Specifically, BALB/c mice were divided into 9 groups, namely, a normal control group (no administration, injection, or feeding of any solvent), a model group (no administration, injection, or feeding of any solvent), a prednisone group (10 mg/kg, administered for 3 consecutive days, QD (once a day), prednisone concentration of 1 mg/mL, and an administration volume of 10 mL/kg), a cetirizine group (20 mg/kg, administered for 3 consecutive days, QD, cetirizine concentration of 2 mg/mL, and an administration volume of 10 mL/kg), a low-dose group and a medium-dose group for the test substance LOU-064 (15 mg/kg and 45 mg/kg, administered for 3 consecutive days, BID (twice a day), LOU-064 concentrations of 1.5 mg/mL and 4.5 mg/mL, and an administration volume of 10 mL/kg), and a low-dose group, a medium-dose group, and a high-dose group for compound (I) (15 mg/kg, 45 mg/kg, and 90 mg/kg, administered for 3 consecutive days, BID, compound (I) concentrations of 1.5 mg/mL, 4.5 mg/mL, and 9 mg/mL, and an administration volume of 10 mL/kg), with 9 mice in each group, administered by gavage for a total of 4 days. On day 3 of the administration, anti-DNP IgE (Sigma-Aldrich) was injected into the left ears of 8 groups of mice (no normal control group), and the same volume of PBS was injected into the right ears of 8 groups and the left and right ears of the normal control group to allow it to bind to mast cells. Then, 24 hours after the fourth day of anti-DNP IgE injection, a mixed solution of antigen (DNP-HAS, Sigma) and pigment Evan's Blue (Sigma) (0.25 mL/mouse, i.v.) was injected into the tail vein (the normal control group was injected with the same volume of the mixed solution of antigen and pigment Evan's Blue). The antigen reacted with the antibody attached to the mast cells, causing a local allergic reaction, increased local vascular permeability, and pigment penetration into the tissue. The reaction intensity was determined by measuring the local pigment content 30 minutes later. The dye was extracted from the left and right ears, and the absorbance of Evan's blue was measured at a specific wavelength. […] The efficacy effects of each test substances in the PCA animal model were evaluated.

`C=CC(=O)N1CCC[C@@H](n2nc(-c3ccc(Oc4ccccn4)cc3)c3c(N)n[nH]c(=O)c32)C1` [compound (I), (R)-1-(1-acryloylpiperidin-3-yl)-4-amino-3-(4-(pyridin-2-yloxy)phenyl)-1H-pyrazolo[3,4-d]pyridazin-7(6H)-one]: the “Concentration of Evan's Blue, Left ear, Average value” turned out to be 25.68 µg/mL (15 mg/kg BID by gavage), 18.21 µg/mL (45 mg/kg BID by gavage) and 22.00 µg/mL (90 mg/kg BID by gavage). The “Evan's Blue content in the modeling ear compared with the model group” value (three dose groups (15, 45, 90 mg/kg BID)) was “significantly reduced”.

Source of the values: patent US20260060982A1, “USE OF BTK INHIBITOR AND SINGLE-DOSE DRUG” (HUBEI BIO-PHARMACEUTICAL INDUSTRIAL TECHNOLOGICAL INSTITUTE …, priority 2023, published 2026).
